Literature values in patent US20070287647A1, “Nail Polish Remover” (priority 2006, published 2007).

Details: in vapor

CC#N [acetonitrile]
inhalation toxicity level: about 60 ppm
